Like-named read-outs stand apart in the source and are kept apart here.
How the values were obtained:
[1] = test system: H460 lung tumor cell line; test: Methylene Blue Growth Inhibition Assay, H460; format: cell-based, human; conditions: H460, 3 days, read-out: MeB Cell Line IC50
Experimental: (§1) II. Methylene Blue Growth Inhibition Assay
(§2) Normal Human foreskin fibroblasts (HFF) and human colon (HCT116, RKO), lung (H460), prostate (PC3), and breast tumor (MCF7) cell lines are cultured in high glucose DMEM (Life Technologies) containing 10% fetal bovine serum (FBS) at 37° C. in a humidified 10% CO2, 90% air incubator. Cells are harvested using trypsin/EDTA, counted using a haemocytometer, and plated in 100 μl of the appropriate media, at the following densities, in a 96-well tissue culture plate (Falcon 3075): HFF 5,000 cells/well, HCT116 3,000 cells/well, RKO 2,500 cells/well, H460 2,000 cells/well, PC3 8,000 cells/well, MCF7 4,000 cells/well. The next day, compounds are diluted in DMEM containing 100 μg/ml gentamicin, at twice the final required concentration, from 10 mM stock solutions in DMSO. 100 μl/well of these dilutions are added to the 100 μl of media currently on the cell plates. Medium containing 0.6% DMSO is added to control wells. Compounds diluted in DMEM are added to all cell lines. The final concentration of DMSO in all wells is 0.3%. Cells are incubated at 37° C., 10% CO2 for 3 days. Medium is removed by aspiration. Cell biomass is estimated by staining cells with 80 μl per well methylene blue (Sigma M9140, 0.5% in 50:50 ethanol:water), and incubation at room temperature for at least 30 minutes. Stain is removed, and the plates rinsed by immersion in water, and air-dried. To release stain from the cells 100 μl of solubilization solution is added (1% N-lauroyl sarcosine, Sodium salt, Sigma L5125, in PBS), and plates are left at room temperature for about 30 minutes. Optical density at 620 nm is measured on a microplate reader. Percent inhibition of cell growth is calculated relative to vehicle treated control wells. Concentration of compound that inhibits 50% of cell growth (IC50) is interpolated using nonlinear regression (Levenberg-Marquardt) and the equation, y=Vmax*(1−(x/(K+x)))+Y2, where Y2=0 and “K” is equal to the IC50.
(§3) In Table 1, +=10−>30 μM; ++=1-10 μM: +++=<1 μM.

[2] = test system: HCT116 colon tumor cell line; test: Methylene Blue Growth Inhibition Assay, HCT116; format: cell-based, human; conditions: HCT116, 3 days, read-out: MeB Cell Line IC50
Experimental: as §1, §2, §3

[3] = test system: PC3 prostate tumor cell line; test: Methylene Blue Growth Inhibition Assay, PC3; format: cell-based, human; conditions: PC3, 3 days, read-out: MeB Cell Line IC50
Experimental: as §1, §2, §3

[4] = test system: Normal Human foreskin fibroblasts (HFF); test: Methylene Blue Growth Inhibition Assay, HFF; format: cell-based; conditions: 3 days, read-out: MeB Cell Line IC50
Experimental: as §1, §2, §3

[5] = test system: MCF7 breast tumor cell line; test: Methylene Blue Growth Inhibition Assay, MCF7; format: cell-based, human; conditions: MCF7, 3 days, read-out: MeB Cell Line IC50
Experimental: as §1, §2, §3

PLK1 kinase domain = target: T1, PLK1 kinase domain (Homo sapiens, UniProt P53350); test: Assay for Inhibition of PLK1 (SPA, 33P-ATP, His-tagged PLK kinase domain); format: biochemical; conditions: 2 nM PLK1 kinase domain, 1 μM ATP, 1.25 hrs at 22° C.; for IC50: read-out: Average pIC50 PLK Enzyme Inhibition (converted)
T1 construct: made in house; host or cells: baculovirus infected T. ni cells
T1 sequence (P53350 21-346): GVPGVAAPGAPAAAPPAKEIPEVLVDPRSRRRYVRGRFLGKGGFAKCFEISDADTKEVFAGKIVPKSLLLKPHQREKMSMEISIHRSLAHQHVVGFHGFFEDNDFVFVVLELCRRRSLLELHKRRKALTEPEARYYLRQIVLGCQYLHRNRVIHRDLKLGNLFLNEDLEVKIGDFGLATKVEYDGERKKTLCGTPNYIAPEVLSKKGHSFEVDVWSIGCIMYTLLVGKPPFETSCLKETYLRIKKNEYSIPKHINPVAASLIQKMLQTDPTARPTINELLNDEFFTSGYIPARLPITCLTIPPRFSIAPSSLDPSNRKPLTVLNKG
Experimental: I. Assay for Inhibition of PLK1
A. Preparation of 6× N-terminal His-tagged PLK kinase domain 6× N-terminal His-tagged PLK kinase domain (amino acids 21-346 preceded by MKKGHHHHHHD (SEQ ID:NO. 1) may be prepared from baculovirus infected T. ni cells under polyhedrin promoter control. All subsequent procedures are performed at 4° C. Cells are lysed in 25 mM HEPES, 200 mM NaCl, 25 mM imidazole; pH 8.0. The homogenate is centrifuged at 14K rpm in a SLA-1500 rotor for 40 min and the supernatant filtered through a 1.2 micron filter. The supernatant is loaded onto a Nickel chelating Sepharose (Amersham Pharmacia) column and washed with 25 mM HEPES, 500 mM NaCl, 25 mM imidazole; pH 8.0. The column is then washed with a 16.6% B step where buffer B is 25 mM HEPES, 500 mM NaCl, 300 mM imidazole; pH 8.0. Protein is eluted using a 10-column volume linear gradient from 16.6% B to 100% B. Fractions were pooled using absorbance at 280 nm. PLK is concentrated using a 10 kDa molecular weight cutoff membrane and then loaded onto a Superdex 75 gel filtration (Amersham Pharmacia) column equilibrated in 25 mM HEPES, 1 mM DTT, 500 mM NaCl; pH 8.0. Protein was pooled by absorbance at 280 nm and then quality controlled using mass spectrometry and SDS-PAGE. PLK was aliquoted and stored at −80° C.
B. Enzyme activity +/− inhibitors was determined as follows: Compounds are added to the plate (1 μl in 100% DMSO). DMSO (5% final) and EDTA (62.5 mM final in 20 μL reaction) are used as controls. Reaction Mix is prepared as follows at 22° C.: • 25 mM HEPES, pH 7.2 • 15 mM MgCl2 • 1 μM ATP • 0.05 μCi/well ^33P-γ ATP (10 Ci/mMol) • 1 μM substrate peptide (Biotin-Ahx-SFNDTLDFD) SEQ ID:No. 2. • 0.15 mg/ml BSA • 1 mM DTT • 2 nM PLK1 kinase domain (added last)
Reaction Mix (20 μl) is added per well to each well immediately upon addition of enzyme and incubated 1.25 hrs. at 22° C. The enzymatic reactions are stopped with 50 μl of SPA bead/EDTA mix (50 mM EDTA, 4.0 mg/ml Streptavidin-coated SPA beads in Standard Dulbecco's PBS (without Mg^2+ and Ca^2+), 50 μM ATP). Plates are sealed with clear plastic seals, spun at 500×g for 1 min. or settled overnight, and plates counted in Packard TopCount for 30 seconds/well.
In Table 1, +=pIC50<5; ++=pIC50 5-7; +++=pIC50>7.

[6] = test system: RKO colon tumor cell line; test: Methylene Blue Growth Inhibition Assay, RKO; format: cell-based, human; conditions: 3 days, read-out: MeB Cell Line IC50
Experimental: as §1, §2, §3

Molecule | IC50 [1] [µM] | IC50 [2] [µM] | IC50 [3] [µM] | IC50 [4] [µM] | IC50 [5] [µM] | Average pIC50 PLK Enzyme Inhibition (PLK1 kinase domain) | IC50 [6] [µM] | IC50 ([1]; Homo sapiens, NCI-H460, 72 h) [µM] | IC50 ([2]; Homo sapiens, HCT-116, 72 h) [µM] | IC50 ([3]; Homo sapiens, 72 h) [µM] | IC50 ([4]; Homo sapiens, 72 h) [µM] | IC50 ([5]; Homo sapiens, 72 h) [µM] | IC50 (PLK1 kinase domain) [µM] | IC50 ([6]; Homo sapiens, 72 h) [µM]
2-(6-Methoxy-1H-benzimidazol-1-yl)-4-({[2-(trifluoromethyl)phenyl]methyl}oxy)-1,3-thiazole-5-carboxamide and 2-(5-methoxy-1H-benzimidazol-1-yl)-4-({[2-(trifluoromethyl)phenyl]methyl}oxy)-1,3-thiazole-5-carboxamide [Example 3] | > 10 | > 10 | > 10 | > 10 | > 10 | +++ (+++=pIC50>7) | > 10 | – | – | – | – | – | – | –
NC(=O)c1sc(-n2cnc3ccccc32)nc1OCc1ccccc1C(F)(F)F [Example 1, 2-(1H-Benzimidazol-1-yl)-4-({[2-(trifluoromethyl)phenyl]methyl}-oxy)-1,3-thiazole-5-carboxamide] | – | – | – | – | – | – | – | > 10 | > 10 | > 10 | > 10 | > 10 | < 0.1 | > 10
NC(=O)c1sc(-n2cnc3ccc(Cl)cc32)nc1OCc1ccccc1C(F)(F)F [Example 2A, 2-(6-Chloro-1H-benzimidazol-1-yl)-4-({[2-(trifluoromethyl)phenyl]methyl}oxy)-1,3-thiazole-5-carboxamide] | – | – | – | – | – | – | – | > 10 | > 10 | > 10 | > 10 | 1 to 10 | < 0.1 | 1 to 10
NC(=O)c1sc(-n2cnc3cc(Cl)ccc32)nc1OCc1ccccc1C(F)(F)F [Example 2B, 2-(5-chloro-1H-benzimidazol-1-yl)-4-({[2-(trifluoromethyl)phenyl]methyl}oxy)-1,3-thiazole-5-carboxamide] | – | – | – | – | – | – | – | > 10 | > 10 | > 10 | > 10 | > 10 | 0.1 to 10 | > 10
NC(=O)c1sc(-n2cnc3ccc(F)cc32)nc1OCc1ccccc1C(F)(F)F [Example 4, 2-(6-Fluoro-1H-benzimidazol-1-yl)-4-({[2-(trifluoromethyl)phenyl]methyl}oxy)-1,3-thiazole-5-carboxamide] | – | – | – | – | – | – | – | > 10 | > 10 | > 10 | > 10 | > 10 | 0.1 to 10 | > 10
Cc1cc2ncn(-c3nc(OCc4ccccc4C(F)(F)F)c(C(N)=O)s3)c2cc1C [Example 5, 2-(5,6-Dimethyl-1H-benzimidazol-1-yl)-4-({[2-(trifluoromethyl)phenyl]methyl}oxy)-1,3-thiazole-5-carboxamide] | – | – | – | – | – | – | – | > 10 | > 10 | > 10 | > 10 | > 10 | 0.1 to 10 | > 10
COc1cc2ncn(-c3nc(OCc4ccccc4C(F)(F)F)c(C(N)=O)s3)c2cc1OC [Example 6, 2-[5,6-Bis(methyloxy)-1H-benzimidazol-1-yl]-4-({[2-(trifluoromethyl)phenyl]-methyl}oxy)-1,3-thiazole-5-carboxamide] | – | – | – | – | – | – | – | 1 to 10 | 1 to 10 | 1 to 10 | > 10 | 1 to 10 | < 0.1 | 1 to 10
